According to patent publication US8603751B2, “Mycobacterial disease detection, treatment, and drug discovery” (priority 2006, dated 2013):

Target: DevR (also known as DosR or Rv3133c) dimerization (Mycobacterium tuberculosis, UniProt P9WMF9)
Assay: M-PFC Alamar Blue screen for inhibitors of DevR dimerization
Assay type: cell-based
Conditions: for effect on DevR dimerization: M-PFC Alamar Blue assay in Msm, titration (FIG. 11); for concentration with the most dramatic effect on DevR dimerization: titration curves, FIG. 11

DevR (also known as DosR or Rv3133c) dimerization, sequence (P9WMF9 whole entry, looked up): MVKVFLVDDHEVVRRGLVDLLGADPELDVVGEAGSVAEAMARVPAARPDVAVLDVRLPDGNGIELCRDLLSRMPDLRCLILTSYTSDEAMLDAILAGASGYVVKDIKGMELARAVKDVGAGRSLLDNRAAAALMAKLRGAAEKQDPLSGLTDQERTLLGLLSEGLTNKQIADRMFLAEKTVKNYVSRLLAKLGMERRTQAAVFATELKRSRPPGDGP

With `Cl.Cn1c(=N)n(CC(=O)c2cc(C(C)(C)C)c(O)c(C(C)(C)C)c2)c2ccccc21` [1-(3,5-di-tert-butyl-4-hydroxyphenyl)-2-(2-imino-3-methyl-2,3-dihydro-1H-benzimidazol-1-yl)ethanone hydrochloride] the “effect on DevR dimerization” value was “inhibitory effect against DevR dimerization at low concentrations” and the “concentration with the most dramatic effect on DevR dimerization” value was 12.5 µg/mL.

For `CC(=O)NS(=O)(=O)c1ccc(NC(=O)CCc2ccccc2)cc1` [N-(4-[(acetylamino)sulfonyl]phenyl)-3-phenylpropanamide], the “effect on DevR dimerization” value was “inhibitory effect against DevR dimerization at low concentrations” and the “concentration with the most dramatic effect on DevR dimerization” value was 12.5 µg/mL.
